Data set [1] relates to GPC3-expressing hepatoma cells. Kind of data set: Cell-killing effect (CCK-8) of gemcitabine-bound combi aptamers. The format is cell-based. To be noted: FIG. 23 and FIG. 24. As for the experimental part:
In detail, Huh-7 cells (ATCC, Rockville, MD, USA) were seeded in a 96-well plate at a density of 1×10^4/mL, and cultured using a DMEM (Gibco, Grand Island, NY, USA) medium containing 10% FBS (Gibco, Grand Island, NY, USA) and 1% antibiotics (penicillin/streptomycin) under conditions of 5% CO2 and 37° C. Next day, the aptamer stock (100 μM) was mixed with 5×SB18 buffer to prepare the stock at a concentration of 80 μM, and heated at 95° C. for 5 min, and then cooled at room temperature for 15 min or more. The medium was removed from the cultured cells, and 100 μL of a serum-free medium was added thereto, and cultured under conditions of 37° C. and 5% CO2 for 1 hr. The serum-free medium was removed, and then the cells were washed with 100 μL of 1×PBS. 100 μL of KRPH buffer was added, and cultured under conditions of 37° C. and 5% CO2 for 1 hr. The aptamer was diluted with KRPH buffer to 2-fold of the desired concentration, and added to a 96-well plate at 1× concentration, and cultured under conditions of 37° C. and 5% CO2 for 4 hr. After treatment with the aptamer, the KRPH buffer was removed, and then 100 μL of culture medium was added and cultured under conditions of 37° C. and 5% CO2 for […]. 6 days later, 10 μL of a kit solution of CCK-8 (Cell Counting Kit-8) was added to each well, and then cultured under conditions of 37° C. and 5% CO2 for 3 hr. Cell death levels were examined at […] using a microplate reader.

Data set [2] relates to squamous cell carcinoma cells (A431). Kind of data set: Cell cycle analysis (propidium iodide, FACS). The class given is cell-based. To be noted: 4 hr treatment, FIG. 27. As for the experimental part:
(§1) To analyze the effects of combi 4 and combi 5 bound with three or five gemcitabines on the cell cycle of hepatoma cells, cell cycle analysis was performed. In detail, Hep3B, HepG2, and A431 cells were seeded in a 6-well plate at a density of 1×10^6/ml, and cultured using a DMEM medium containing 10% FBS and 1% antibiotics (penicillin/streptomycin) under conditions of 5% CO2 and 37° C., respectively. Next day, 100 μM of the modified aptamer stock was mixed with 5×SB18 buffer to prepare the aptamer at a concentration of 80 μM, and heated at 95° C. for 5 min, and then cooled at room temperature for 15 min or more. The medium was removed from the cultured cells, and replaced by a serum-free medium, and cultured under conditions of 37° C. and 5% CO2 for 1 hr. The serum-free medium was removed, and then the cells were washed with 2 ml of 1×PBS. 2 ml of KRPH buffer was added, and cultured under conditions of 37° C. and 5% CO2 for 1 hr. The aptamer was added, and cultured under conditions of 37° C. and 5% CO2 for 4 hr. The KRPH buffer was removed, and 2 ml of 1×PBS was added thereto to perform washing, and then PBS was removed. 2 ml of 1×PBS was added, and cells were scraped using a scraper, and collected in FACs tubes, followed by centrifugation at 4° C. and 2000 rpm for 4 minutes. 1/500-fold diluted RNAase A and propidium iodide diluted with PBS at a concentration of 50 μg/ml were added to the FACs tubes at a volume of 500 μL, followed by pipetting. Incubation was performed at room temperature for 30 min while blocking the light, and then cell cycle was measured.

Data set [3] relates to hepatoma cells (Hep3B, HepG2). In words: Cell cycle analysis (propidium iodide, FACS). The note with it: 4 hr treatment, FIGS. 25 and 26. The format is cell-based. The protocol:
as §1

The target in a further data set is GPC3 (Homo sapiens, UniProt P51654). Kind of data set: Protein binding assay with 32P-labeled aptamers (Zorbax resin, filter plate, phosphorimager). To be noted: FIG. 1. As for the experimental part: To select an aptamer which is the most specific to GPC3 from 7 aptamer libraries expected to be specific to GPC3 [2428-12-09, 2428-12-10, 2428-12-11, 2424-30-01, 2424-30-05, 2424-30-06, 2424-30-07, all 40-mer], a binding assay was performed through […] labeling. In detail, to […] RI-labeled and unlabeled oligonucleotide region at the oligonucleotide 3′-end of each candidate aptamer sequence, 0.25 μL of α-32P, 0.25 μL of DNA nucleotidylexotransferase (terminal transferase), 1 μL of 10×NEB buffer (New England Biolabs, USA), 1 μL of CoCl2, 7.5 μL of a template (aptamer sequence) (total 10 μL) were added to a plate, which was then sealed with foil, and then incubated at 37° C. for 30 min (enzyme incubation). After incubation at 70° C. for 10 min (enzyme incubation), each of the incubated samples was diluted with 30 μL of distilled water. The lower part of the Microspin G-50 column was removed and a tube was put thereon. After spinning at 800 rcf for 1 min, the tube was removed. The sample was put in a resin, followed by spinning at room temperature and 800 rcf for 2 min.
Sequence of GPC3 (P51654 25-554): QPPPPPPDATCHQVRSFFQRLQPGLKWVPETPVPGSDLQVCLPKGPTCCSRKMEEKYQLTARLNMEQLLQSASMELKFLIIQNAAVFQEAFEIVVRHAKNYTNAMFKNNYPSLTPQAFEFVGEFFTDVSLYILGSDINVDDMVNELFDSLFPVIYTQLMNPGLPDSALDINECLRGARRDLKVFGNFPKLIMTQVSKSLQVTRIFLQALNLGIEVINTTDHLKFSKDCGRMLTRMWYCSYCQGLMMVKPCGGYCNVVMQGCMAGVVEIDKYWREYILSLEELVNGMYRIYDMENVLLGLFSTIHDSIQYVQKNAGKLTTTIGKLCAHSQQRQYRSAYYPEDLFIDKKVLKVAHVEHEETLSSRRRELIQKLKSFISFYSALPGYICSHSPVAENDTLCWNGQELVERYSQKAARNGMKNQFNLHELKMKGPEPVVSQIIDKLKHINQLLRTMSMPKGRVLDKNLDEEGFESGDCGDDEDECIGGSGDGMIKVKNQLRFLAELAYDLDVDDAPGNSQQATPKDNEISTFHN
The aptamers, from which RI-labeled and unlabeled oligonucleotide ends were removed, were diluted with 100 μL of 1×SB18T0.05 to 20,000 cpm. The aptamers were heated at 95° C. for 5 min, and subsequently, cooled at 37° C. for 15 min. 100 nM of protein (GPC3) was subjected to 4.64-fold serial dilution, and each 30 μL of a total of 8 points was added to each well. 200 μL of 1×SB18T0.05 was added to the aptamers, of which heating and cooling were completed, and then 30 μL thereof was added to each well for a total volume of 60 μL. 2 μL of the aptamer was dropped as an input control on a nylon filter, followed by incubation at 37° C. for 30 min. During incubation, 30 μL of 1×SB18T0.05 was added to a filter plate in advance. After incubation, 5.5 μL of Zorbax resin was added, and allowed to react at 1400 rpm for 1 min. […] The screen was analyzed, and the binding degree according to each protein concentration was derived (percentage bound value).

Experimental findings from patent US12668803B2, “Glypican-3-specific modified aptamer and use thereof” (APTAMER SCIENCES INC., priority 2019, dated 2026) are described below.

By Kd is commonly meant the equilibrium constant for the complex coming apart.

Regarding “Combi 11 G(3) (DNA GNGAANGCGNNGAANNANWYSSSNNCAGNCANCAC; gemcitabines, 2'-MOE, 2'-F, BzdU, 3' idT; Combi 11 G(3); (1)..(1) G is 2-Methoxyethyl-DNA.; (2)..(2) n is BzdU.; (3)..(3) G is 2-Methoxyethyl-DNA.; (4)..(4) A is 2-Fluorine-DNA.; (5)..(5) A is 2-Fluorine-DNA.; (6)..(6) n is BzdU.; (10)..(10) n is BzdU.; (11)..(11) n is BzdU.; (12)..(12) G is 2-Fluorine-DNA.; (13)..(13) A is 2-Fluorine-DNA.; (14)..(14) A is 2-Methoxyethyl-DNA.; (15)..(15) n is BzdU.; (16)..(16) n is BzdU.; (17)..(17) A is)”, the “concentration from which a cell-killing effect is shown” value (from here on “concentration”) in data set [1] is given as 200 nM.

“Combi 4 G(5) (DNA GNGAANGCGNNGAANNANGYSSSNNCAGNCANSAS; 5 gemcitabines, 2'-OMe, 2'-F, BzdU, 3' idT; Combi 4 G(5); (1)..(1) G is 2-O-Methoxy-DNA.; (2)..(2) n is BzdU.; (3)..(3) G is 2-O-Methoxy-DNA.; (4)..(4) A is 2-Fluorine-DNA.; (5)..(5) A is 2-Fluorine-DNA.; (6)..(6) n is BzdU.; (10)..(10) n is BzdU.; (11)..(11) n is BzdU.; (12)..(12) G is 2-Fluorine-DNA.; (13)..(13) A is 2-Fluorine-DNA.; (14)..(14) A is 2-Fluorine-DNA.; (15)..(15) n is BzdU.; (16)..(16) n is BzdU.; (17)..(17) A is 2-Fluorine-)”: the cell cycle arrest entry in data set [2] is recorded as “no cell cycle arrest”; in data set [3], “arrested hepatoma cells at the G1/S phase”. Also, the “concentration” value in data set [1] is 100 nM.

As for `Nc1ccn([C@@H]2O[C@H](CO)[C@@H](O)C2(F)F)c(=O)n1` [gemcitabine, 2′,2′-difluoro 2′-deoxycytidine, reference compound], in data set [2], the cell cycle arrest result is reported as “no cell cycle arrest”.

For the compound “Combi 5 G(5) (DNA GNGAANGCGNNGAANNANWYSSSNNCAGNCANSAS; 5 gemcitabines, 2'-OMe, BzdU; Combi 5 G(5); (1)..(1) G is 2-O-Methoxy-DNA.; (2)..(2) n is BzdU.; (3)..(3) G is 2-O-Methoxy-DNA.; (4)..(4) A is 2-Fluorine-DNA.; (5)..(5) A is 2-Fluorine-DNA.; (6)..(6) n is BzdU.; (10)..(10) n is BzdU.; (11)..(11) n is BzdU.; (12)..(12) G is 2-Fluorine-DNA.; (13)..(13) A is 2-Fluorine-DNA.; (14)..(14) A is 2-O-Methoxy-DNA.; (15)..(15) n is BzdU.; (16)..(16) n is BzdU.; (17)..(17) A is 2-O-Methox)”, the cell cycle arrest entry in data set [2] is recorded as “no cell cycle arrest”; in data set [3] it was “arrested hepatoma cells at the G1/S phase”. The “concentration” value in data set [1] amounted to 100 nM.

“12-10: SEQ ID NO: 1, 40-mer GPC3-specific aptamer with BzdU bases (GGGAAGnGAAnGCGnnGAAnnAnGnCCCnnCAGnCAnCAC; BzdU bases, as printed in the source, key not given here)”: the “binding ability among the candidates” value in the data set with GPC3 (7 candidate 40-mer aptamers) is “most excellent binding ability”. Moreover, the “maximum binding capacity (Bmax)” value with GPC3 came to 0.79. The Kd with GPC3 (read-out: dissociation constant (Kd)) came out at 1.5 nM.
